The values below come from patent US6083496A, “Polyamine transport inhibitors” (priority 1996, dated 2000).

Usually Km stands for the concentration of substrate that gives half-maximal velocity.

Data set [1] concerns polyamine transporter. The data set can be described thus: Putrescine uptake ([3H]putrescine) in ZR-75-1 cells. The class given is cell-based, human. The settings on record: DESC up to 100 μM, MESC up to 200 μM. As to the method: (§1) J. Biol. […] Endocrinology 126: 3223-3231). […] Cell cultures were then washed twice with 1 ml PBS containing 5.7 mM sym-norspermidine. Cells were then lysed with 200-μl aliquot of 1 N NaOH and incubated for 30 minutes at 60° C. After neutralization with 200 μl of 1 N HCl, radioactivity was determined from a 250-μl of the cell lysate by scintillation counting. Uptake activity was expressed per amount of total cellular protein as determined by the method of Bradford (Bradford, M. M. 1976. Anal. Biochem. 72: 248-254). Non-specific binding of radioactive substrate was similarly determined in parallel for both cell lines after a 15 second-incubation with 400 μl of ice-cold uptake solution. […] Km, Ki and Vmax values were then estimated by Line-weaver-Burke analysis. For competitive inhibitors, Ki values were also estimated by measuring uptake activity in the presence of logarithmically increasing concentrations of antagonist, and using the Cheng-Prusoff equation (Cheng. Y. -C. and Prusoff, W. H. 1973. Biochem. Pharmacol. 22: 3099-3108) by iterative curve fitting for a sigmoidal curve. For mixed competitive/noncompetitive inhibition, two methods were used to calculate kinetic constants. […] C. 1976. Enzymes, 3rd Ed., Academic Press, San Diego, Calif.). […] C. 1976. Enzymes, 3rd Ed., Academic Press, San Diego, Calif.).

Data set [2] is described as follows: Stability in buffered aqueous solution. The class given is physicochemical. Conditions: buffered at pH=7.0.
Data set [3] concerns ZR-75-1 cells. As to the kind of experiment: Effect of inhibitors on cell proliferation (11 days, DNA content). The format is cell-based, human. How it is done:
Effect of Inhibitors on Cell Proliferation--For growth studies, ZR-75-1 cells were cultured in MEZR medium or in phenol red-free RPMI 1640 supplemented with 2 mM L-glutamine, 1 mM sodium pyruvate, 15 mM Hepes, antibiotics, 1 nM 17β-estradiol, 0.5 μg of bovine insulin per ml and 5% (v/v) charcoal-treated fetal bovine serum (SD medium), as indicated in the text. […] M. L. 1989. in The Physiology of Polyamines (Bachrach, U., and Helmer, Y. M. eds) Vol. I, pp. 203-229, CRC Press, Boca Raton). […] Endocrinology 126: 3223-3231). Medium was changed every other day in these experiments because of the slow reaction of the compound with an unknown component present in the IMEM and RPMI 1640 medium formulation.

Data set [4] concerns ZR-75-1 cells. As to the kind of experiment: Intracellular accumulation of DESC and MESC and polyamine contents (HPLC). The format is cell-based, human. How it is done:
Polyamine Analysis--ZR-75-1 cells were plated in 100 mm culture dishes at 5×10^5 cells/dish in MEZR medium and grown for 5 days with medium changes every other day. Fresh MEZR medium containing the indicated concentration of transport antagonist was then added, plus or minus 200 μM cycloheximide (CHX), and cells were incubated for 1 or 6 hours. […] Cell pellets were resuspended in 300 μl of 10% (v/v) trichloroacetic acid or Tris-DTT buffer (50 mM Tris/HCl, 0.1 mM EDTA, 5 mM DTT, pH 7.5) and stored at -20° C. until further analysis. For chromatographic analysis, samples were first quickly thawed and incubated for 15 minutes at 37° C. Trichloroacetic acid was then added to DTT-containing samples to a final concentration of 10% (wt/v). Samples were dispersed for 2 minutes in a sonicating water bath, and pelleted in a microcentrifuge for 5 minutes. The trichloroacetic acid-insoluble pellet was solubilized in 300-500 μl of 1 N NaOH and used to determine protein content using bovine serum albumin (fraction V) as standard.
Since DESC was eluted as a late, broad peak in the HPLC system used, DTT was added to cell extracts to reduce DESC to MESC and decrease the detection threshold. ZR-75-1 cells were incubated for 1 or 6 hours in MEZR medium in the presence of 50 or 200 μM DESC or MESC prior to determination of polyamine contents. CHX was added at 200 μM where indicated. Other details are provided under "Materials and Methods". Values are the mean±SD of triplicate determinations from 2 independent experiments.

Data set [5] is described as follows: DESC stability in biological media (HPLC, cell-free). Conditions: imem medium, 37° C., 5% CO2, cell-free, read-out: Fraction of compound decomposed. The format is physicochemical. As to the method: DESC stability--DESC stability was tested by incubating the compound dissolved (at 50 μM) in PBS or in IMEM medium containing 10% (v/v) fetal bovine serum plus or minus 1 mM aminoguanidine in a humid 5% CO2 atmosphere at 37° C. and in the absence of cells. At indicated times, trichloroacetic acid was added to aliquots of this solution to a final concentration 10% (w/v) and the samples directly analyzed by HPLC as above.

Data set [6] deals with polyamine transporter. As to the kind of experiment: Spermine uptake ([14C]spermine) in ZR-75-1 cells. The format is cell-based, human. As to the method:
as §1

The test system of data set [7] is ZR-75-1 cells. The data set can be described thus: Time course of intracellular [3H]spermidine accumulation with transport antagonists. The format is cell-based. The settings on record: Homo sapiens. How it is done: The time course of intracellular accumulation of spermidine in the presence of transport antagonists was determined by incubating ZR-75-1 cells in 24-well plates with DESC (50 or 200 μM) or MESC (200 μM) in dissolved in MEZR medium containing 5 μM [^3 H]spermidine in the presence or absence of cycloheximide (CHX, 200 μM), and harvesting at the indicated times for the determination of intracellular radioactive contents, as described above for polyamine uptake assays.

The test system of data set [8] is ZR-75-1 cells. As to the kind of experiment: Reversal of DFMO-induced growth inhibition by exogenous spermidine. The format is cell-based, human. As to the method:
Effect of Inhibitors on Cell Proliferation--For growth studies, ZR-75-1 cells were cultured in MEZR medium or in phenol red-free RPMI 1640 supplemented with 2 mM L-glutamine, 1 mM sodium pyruvate, 15 mM Hepes, antibiotics, 1 nM 17β-estradiol, 0.5 μg of bovine insulin per ml and 5% (v/v) charcoal-treated fetal bovine serum (SD medium), as indicated in the text. When polyamines or polyamine analogs were added to serum-containing media, 1 mM aminoguanidine was added to inhibit bovine serum amine oxidase (BSAO) activity (Morgan, D. M. L. 1989. in The Physiology of Polyamines (Bachrach, U., and Helmer, Y. M. eds) Vol. I, pp. 203-229, CRC Press, Boca Raton). The effect of the transport inhibitors on cell growth was measured by incubating ZR-75-1 cells for 11 days in medium supplemental with antagonist, polyamines and/or 1 mM DFMO as indicated, followed by colorimetric determination of DNA content with 3,5-diaminobenzaic acid (Simard, J., Dauvois, S., Haagensen, D. E., Levesque, C., Merand, Y. and Labrie, F. 1990. Endocrinology 126: 3223-3231). Medium was changed every other day in these experiments because of the slow reaction of the compound with an unknown component present in the IMEM and RPMI 1640 medium formulation.

For data set [9] the following is noted: secondary amino group of the spermine head; cited from earlier work.
Data set [10] has as its system polyamine transporter. As to the kind of experiment: Spermidine uptake ([3H]spermidine) in CHO-K1 cells. Conditions: MESC thioether derivatives, FIG. 5. The class given is cell-based, Chinese hamster.
For data set [11], the system named is polyamine transporter. Conditions: ZR-75-1 cells; compound as its own substrate; read-out: Km, putrescine transport; cited from earlier work.
The mark [12] stands for this setting: 200 μM compound + 200 μM CHX, 1 h.
[13] abbreviates: 200 μM compound + 200 μM CHX, 6 h.

SMILES strings stand for the structures.

Consider `NCCCNCCCC(NCCCN)C(=O)NCCSSCCN` (centres unmarked) [DEASC, N-[2,2'-Dithio(Ethyl, 1'-Aminoethyl)]spermine-5-carboxamide], for which the “Mode of inhibition of [3H]putrescine uptake” value in data set [1] is “mixed competitive/non-competitive”. Further, the “Stability in aqueous solution” value in [2] is recorded as “stable for months”. Besides, in [3], the “Influence of 1 mM aminoguanidine on the growth effect of the compound” value was “completely prevented by the amine oxidase inhibitor”. In data set [3] (Homo sapiens, ZR-75-1, 264 h, 50 μM, 11 days), this molecule came in with an inhibition at 50 µM of 20%.

For the molecule `NCCCNCCCC(NCCCN)C(=O)NCCSSCCNC(=O)C(CCCNCCCN)NCCCN` (centres unmarked) [DESC, 2,2'-dithiobis(N-ethyl-spermine-5-carboxamide)], the DESC intracellular content is less than 0.01 nmol/mg protein in [4] (50 μM compound, 1 h); less than 0.01 nmol/mg protein in data set [4] (50 μM compound, 6 h); less than 0.01 nmol/mg protein in [4] (setting [12]); less than 0.01 nmol/mg protein in data set [4] (200 μM compound, 1 h); 0.12 ± 0.01 nmol/mg protein in data set [4] (200 μM compound, 6 h). For the same molecule, the MESC intracellular content in data set [4] (50 μM compound, 1 h) is reported as less than 0.01 nmol/mg protein; in data set [4] (50 μM compound, 6 h), less than 0.01 nmol/mg protein; in [4] (setting [12]) it was less than 0.01 nmol/mg protein; in [4] (setting [13]), less than 0.01 nmol/mg protein; in [4] (200 μM compound, 1 h) it was less than 0.01 nmol/mg protein; in data set [4] (200 μM compound, 6 h) it was less than 0.01 nmol/mg protein. For the same molecule, the Spermidine intracellular content in data set [4] (50 μM compound, 1 h) turned out to be 0.81 ± 0.14 nmol/mg protein; in data set [4] (50 μM compound, 6 h), 0.73 ± 0.11 nmol/mg protein; in [4] (setting [12]) it was 0.76 ± 0.04 nmol/mg protein; in [4] (setting [13]), 0.70 ± 0.03 nmol/mg protein; in data set [4] (200 μM compound, 1 h), 0.79 ± 0.11 nmol/mg protein; in data set [4] (200 μM compound, 6 h), 0.76 ± 0.11 nmol/mg protein. In addition, the Spermine intracellular content in data set [4] (50 μM compound, 6 h) worked out at 8.60 ± 0.29 nmol/mg protein. For the same molecule, the “Effect of CHX on internalization of the compound” value in data set [4] (200 μM DESC + 200 μM CHX) was “did not enhance DESC internalization”. Moreover, in [4] (200 μM, 6 h), the “Intracellular level relative to accumulation of substrates (spermidine, sym-norspermidine, spermine) under identical conditions” value was “about 1.5%”. Moreover, in [5], the degraded at 48 h, 50 µM turned out to be 40%. In addition, the “Increase in affinity for the polyamine transporter on dimerization of MESC into DESC” value in data set [6] (DESC relative to MESC) is “up to 20 fold”. Moreover, in [6] (ZR-75-1 cells, FIG. 2), the “Ki against [14C]spermine transport, fold lower than that of DEASC” value was “about 5 fold”. Besides, the “Ki against [14C]spermine transport, fold lower than that of MESC” value in data set [6] (ZR-75-1 cells, FIG. 2) is recorded as approximately 16 fold. Besides, the inhibition at 200 µM in [7] (5 μM [3H]spermidine, 6 hours, no CHX, read-out: Decrease of net spermidine accumulation) turned out to be 50%. Further, the activity at 200 µM in [7] (read-out: Cellular level of newly internalized spermidine relative to control conditions) came out at 20%. In addition, in data set [2], the “Stability in aqueous solution” value is listed as “stable for months”. In addition, in data set [8] (50 μM, DESC:spermidine ratio up to 500), the “Prevention of the reversal of DFMO-induced growth inhibition by spermidine” value is “unable to prevent the reversal”.

For `NCCC[C@](N)(C(=O)O)C(F)F` [DFMO, α-difluoromethylornithine], in data set [8] (Homo sapiens, ZR-75-1, 264 h, 1 mM, 11-day incubation), the inhibition at 1000 µM was approximately 50%.

As for `NCCCNCCCC(NCCCN)C(=O)NCCS` (centres unmarked) [MESC, N-(2-mercaptoethyl)spermine-5-carboxamide], the DESC intracellular content is less than 0.01 nmol/mg protein in data set [4] (50 μM compound, 1 h); less than 0.01 nmol/mg protein in data set [4] (50 μM compound, 6 h); less than 0.01 nmol/mg protein in data set [4] (200 μM compound, 1 h); less than 0.01 nmol/mg protein in data set [4] (200 μM compound, 6 h). In addition, the MESC intracellular content in data set [4] (50 μM compound, 1 h) was less than 0.01 nmol/mg protein; in data set [4] (50 μM compound, 6 h), less than 0.01 nmol/mg protein; in [4] (200 μM compound, 1 h) it was 0.020 nmol/mg protein; in data set [4] (200 μM compound, 6 h), 0.13 nmol/mg protein. The Spermidine intracellular content amounted to 0.95 ± 0.11 nmol/mg protein in [4] (50 μM compound, 1 h); 0.75 ± 0.11 nmol/mg protein in data set [4] (50 μM compound, 6 h); 1.15 ± 0.07 nmol/mg protein in data set [4] (200 μM compound, 1 h); 0.81 ± 0.15 nmol/mg protein in data set [4] (200 μM compound, 6 h). For the same molecule, the pKa result in data set [9] is listed as “≈ 5.5”. Further, the “Influence of 1 mM aminoguanidine on the growth effect of the compound” value in [3] is “not blocked by aminoguanidine”. The inhibition at 200 µM in data set [3] (Homo sapiens, ZR-75-1, 264 h, 200 μM, 11 days, read-out: Decrease in cell growth) was 35%.

With `[N-]=[N+]=Nc1ccc(C(=O)NCCCCNC(=O)CSCCNC(=O)C(CCCNCCCN)NCCCN)c(O)c1` (centres unmarked) [MESC-ASIB], in [10], the “Ki toward spermidine uptake compared with MESC” value is “did not signicantly (P>0.10) increase the Ki”.

Take `NCCCNCCCC(NCCCN)C(=O)NCCSCC(=O)NCCN1C(=O)c2cc(S(=O)(=O)O)cc3c(N)c(S(=O)(=O)O)cc(c23)C1=O` (centres unmarked) [MESC-LY]: the “Ki toward spermidine uptake compared with MESC” value in data set [10] is on record as “did not signicantly (P>0.10) increase the Ki”.

With `NCCCNCCCC(NCCCN)C(=O)NCCSCC(N)=O` (centres unmarked) [MESC-acetamide], the “Ki toward spermidine uptake compared with MESC” value in data set [10] is given as “did not signicantly (P>0.10) increase the Ki”.

As to `NCCCCN` [Putrescine, 1,4-butane-diamine], the Km in data set [11] is 3.7 ± 0.4 µM.

For the molecule `N=C(N)NN` [aminoguanidine, reference compound], in data set [3] (1 mM, 11 days), the “Effect on cell growth, compound alone” value was “slight inhibitory effect”.
